Where two headings read alike, the source gives them in different places.
Legend:
[1] = tested on: TGEV; settings: 45% PG eluate; for Reduction Factor: vs T0
[2] = tested on: BVDV; settings: 45% PG eluate; for Titre: Standard titration; for Reduction Factor: vs T0

propane-1,2-diol [PG]
Clearance Factor ([1]; Run 1, T = 0 Load Sample): 0.07 log | Titre ([1]; Run 1, T = 0 Load Sample, Standard titration): 5.12 log10 TCID50/ml | Clearance Factor ([1]; Run 1, T = 5 min): 124 log | Log10TICD50 (total viral load) ([1]; Run 1, T = 5 min): 5.21 Log10TICD50 | Titre ([1]; Run 1, T = 5 min, Standard titration): 3.95 log10 TCID50/ml | Reduction Factor ([1]; Run 1, T = 5 min): 1.0 log | Titre ([1]; Run 1, T = 15 min, Standard titration): 2.78 log10 TCID50/ml | Titre ([1]; Run 1, T = 60 min, Standard titration): 132 log10 TCID50/ml | Reduction Factor ([1]; Run 1, T = 60 min): 3.0 log | Clearance Factor ([1]; Run 1, T = 180 min): 4.38 log | Log10TICD50 (total viral load) ([1]; Run 1, T = 180 min): 3.08 Log10TICD50 | Titre ([1]; Run 1, T = 180 min, Standard titration): 0.8 log10 TCID50/ml | Titre ([1]; Run 1, T = 360 min, Standard titration): <0.8 log10 TCID50/ml | Clearance Factor ([1]; Run 2, T = 0 Load Sample): 0.08 log | Titre ([1]; Run 2, T = 0 Load Sample, Standard titration): 5.28 log10 TCID50/ml | Titre ([1]; Run 2, T = 5 min, Standard titration): 4.26 log10 TCID50/ml | Reduction Factor ([1]; Run 2, T = 5 min): 1 log | Log10TICD50 (total viral load) ([1]; Run 2, T = 15 min): 5.40 Log10TICD50 | Titre ([1]; Run 2, T = 15 min, Standard titration): 3.2 log10 TCID50/ml | Reduction Factor ([1]; Run 2, T = 15 min): 8.05 log | Clearance Factor ([1]; Run 2, T = 60 min): 4.50 log | Titre ([1]; Run 2, T = 60 min, Standard titration): 0.8 log10 TCID50/ml | Reduction Factor ([1]; Run 2, T = 60 min): 4.45 log | Titre ([1]; Run 2, T = 180 min, 1 LVP (96 wells)): −0.12 log10 TCID50/ml | Reduction Factor ([1]; Run 2, T = 180 min, LVP): 5.4 log | Titre ([1]; Run 2, T = 360 min, 1 LVP (96 wells)): <−0.12 log10 TCID50/ml | Reduction Factor ([1]; Run 2, T = 360 min, LVP): >5.40 log | Clearance Factor ([2]; Run 1, T = 0 Load Sample): 0.43 log | Clearance Factor ([2]; Run 1, T = 5 min): 165 log | Log10TICD50 (total viral load) ([2]; Run 1, T = 5 min): 4.53 Log10TICD50 | Titre ([2]; Run 1, T = 5 min): 18 log10TCID50/ml | Reduction Factor ([2]; Run 1, T = 5 min): 122 log | Clearance Factor ([2]; Run 1, T = 15 min): 13 log | Log10TICD50 (total viral load) ([2]; Run 1, T = 15 min): 6.50 Log10TICD50 | Reduction Factor ([2]; Run 1, T = 15 min): 0.97 log | Clearance Factor ([2]; Run 1, T = 60 min): 13 log | Log10TICD50 (total viral load) ([2]; Run 1, T = 60 min): 4.90 Log10TICD50 | Reduction Factor ([2]; Run 1, T = 60 min): 0.97 log | Clearance Factor ([2]; Run 1, T = 180 min): 13 log | Log10TICD50 (total viral load) ([2]; Run 1, T = 180 min): 4.58 Log10TICD50 | Reduction Factor ([2]; Run 1, T = 180 min): 0.97 log | Clearance Factor ([2]; Run 2, T = 0 Load Sample): 0.44 log | Log10TICD50 (total viral load) ([2]; Run 2, T = 0 Load Sample): 5.78 Log10TICD50 | Titre ([2]; Run 2, T = 25): 132 log10TCID50/ml | Reduction Factor ([2]; Run 2, T = 25): 171 log | Clearance Factor ([2]; Run 2, T = 5 min): 188 log | Titre ([2]; Run 2, T = 5 min): 159 log10TCID50/ml | Reduction Factor ([2]; Run 2, T = 5 min): 144 log | Clearance Factor ([2]; Run 2, T = 60 min): 168 log | Titre ([2]; Run 2, T = 60 min): 189 log10TCID50/ml | Reduction Factor ([2]; Run 2, T = 60 min): 144 log
